Source: ChEMBL document CHEMBL1255186, “A novel 18F-labeled pyridyl benzofuran derivative for imaging of β-amyloid plaques in Alzheimer's brains” (Bioorg Med Chem Lett, 2010)
Activity calls are given as the source filed them. The rule behind the calls is not given here.

Experiments:
Mus musculus [1] = species on record: Mus musculus; test: Reduction of amyloid beta40 level in Tg2576 mouse entorhinal cortex at 11.1 MBq; type: functional, tissue-based; details: 11.1 M, tested as the 18F-labelled form
Mus musculus [2] = species on record: Mus musculus; test: Reduction of amyloid beta40 level in Tg2576 mouse dentate gyrus at 11.1 MBq; type: functional, tissue-based; details: 11.1 M, tested as the 18F-labelled form
Cortex = test: Reduction of amyloid beta40 level in Tg2576 mouse cortex at 11.1 MBq; type: functional, tissue-based; details: 11.1 M, tested as the 18F-labelled form
Hippocampus = test: Reduction of amyloid beta40 level in Tg2576 mouse hippocampus at 11.1 MBq; type: functional, tissue-based; details: 11.1 M, tested as the 18F-labelled form
Blood [3] = test: Biodistribution in mouse blood at 444 kBq/50 uL after 2 mins; type: ADME, organism-based; details: in vivo
Blood [4] = test: Biodistribution in mouse blood at 444 kBq/50 uL after 10 mins; type: ADME, organism-based; details: in vivo
[5] = Displacement of [125I]IMPY from amyloid beta 1-42
Brain [6] = test: Biodistribution in mouse brain at 444 kBq/50 uL after 2 mins; type: ADME, organism-based; details: in vivo
Bone [7] = test: Biodistribution in mouse bone at 444 kBq/50 uL after 2 mins; type: ADME, organism-based, Bone element; details: in vivo
Blood [8] = test: Biodistribution in mouse blood at 444 kBq/50 uL after 60 mins; type: ADME, organism-based; details: in vivo, 1 h
Brain [9] = test: Biodistribution in mouse brain at 444 kBq/50 uL after 10 mins; type: ADME, organism-based; details: in vivo
Blood [10] = test: Biodistribution in mouse blood at 444 kBq/50 uL after 30 mins; type: ADME, organism-based; details: in vivo, 0.5 h
Bone [11] = test: Biodistribution in mouse bone at 444 kBq/50 uL after 30 mins; type: ADME, organism-based, Bone element; details: in vivo, 0.5 h
Bone [12] = test: Biodistribution in mouse bone at 444 kBq/50 uL after 10 mins; type: ADME, organism-based, Bone element; details: in vivo
Brain [13] = test: Biodistribution in mouse brain at 444 kBq/50 uL after 60 mins; type: ADME, organism-based; details: in vivo, 1 h
Brain [14] = test: Biodistribution in mouse brain at 444 kBq/50 uL after 30 mins; type: ADME, organism-based; details: in vivo, 0.5 h
Bone [15] = test: Biodistribution in mouse bone at 444 kBq/50 uL after 60 mins; type: ADME, organism-based, Bone element; details: in vivo, 1 h

| Drug uptake (Blood [3]) [% ID/g] | Drug uptake (Blood [4]) [% ID/g] | Ki [5] [nM] | Drug uptake (Brain [6]) [% ID/g] | Drug uptake (Bone [7]) [% ID/g] | Drug uptake (Blood [8]) [% ID/g] | Drug uptake (Brain [9]) [% ID/g] | Drug uptake (Blood [10]) [% ID/g] | Drug uptake (Bone [11]) [% ID/g] | Drug uptake (Bone [12]) [% ID/g] | Drug uptake (Brain [13]) [% ID/g] | Drug uptake (Brain [14]) [% ID/g] | Drug uptake (Bone [15]) [% ID/g] | SMILES | Activity (Mus musculus [1]) | Activity (Mus musculus [2]) | Activity (Cortex) | Activity (Hippocampus) |
| --- | --- | --- | --- | --- | --- | --- | --- | --- | --- | --- | --- | --- | --- | --- | --- | --- | --- |
|  |  |  |  |  |  |  |  |  |  |  |  |  | CN(C)c1ccc(-c2cc3cc(OCCOCCOCCF)ccc3o2)cn1 | Active | Active | Active | Active |
| 2.83 | 2.13 | 0.9 | 5.16 | 1.61 | 1.98 | 3.75 | 1.76 | 1.11 | 1.33 | 2.44 | 2.78 | 1.42 | CN(C)c1ccc(-c2cc3cc(OCCOCCOCC[18F])ccc3o2)cn1 |  |  |  |  |
